Measured values as given in PubChem BioAssay (NCI).
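Interpolation was linear, between the two tested concentrations surrounding the appropriate level; five concentrations were tested over 48 hours in 96-well plates. At the TGI there is no net growth.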

Columns and labels:
Assay in all cases: inhibition of tumour cell growth, NCI panel, 48 h
SNB-78 CNS = tested on: SNB-78 CNS
HOP-18 NSCLC = tested on: HOP-18 NSCLC
DMS 273 small cell lung = tested on: DMS 273 small cell lung
RXF-631 renal = tested on: RXF-631 renal
DLD-1 colon = tested on: DLD-1 colon
T-47D breast = tested on: T-47D breast
MDA-N = tested on: MDA-N
XF 498 CNS = tested on: XF 498 CNS
M19-MEL melanoma = tested on: M19-MEL melanoma

SMILES | TGI (SNB-78 CNS) [µM] | TGI (HOP-18 NSCLC) [µM] | TGI (DMS 273 small cell lung) [µM] | TGI (RXF-631 renal) [µM] | TGI (DLD-1 colon) [µM] | TGI (T-47D breast) [µM] | TGI (MDA-N) [µM] | TGI (XF 498 CNS) [µM] | TGI (M19-MEL melanoma) [µM]
CCOC(=O)c1[nH]c(CN(C)Cc2[nH]c(C(=O)OCC)c(C)c2C(=O)OCc2ccccc2)c(C(=O)OCc2ccccc2)c1C | > 100 | > 100 | 35 | 43.4 | > 100 |  |  |  | 
CC(/C=N\NC(=S)N(C)C)=N/NC(=S)N(C)C |  |  |  |  |  | 2.78 | > 100 |  | 
CC1(C)CCCOc2cccc(c2)OCCCC(C)(C)C1=O |  |  |  |  |  | > 100 | > 100 |  | 
COc1ccc2c(c1)CCC1=C/C(=N\NC(N)=O)CCC12C (stereo unspecified) |  |  |  |  |  | > 10 | > 10 |  | 
CCOC(=O)CCC(NC(=O)c1ccc(Nc2cnc3ccc(C(F)(F)F)cc3n2)cc1)C(=O)OCC (stereo unspecified) |  |  |  |  |  | > 100 | > 100 |  | 
COc1cc(C)c(C)c(OC(=O)c2c(C)c(C)c(OC)c(C)c2OC)c1C | > 100 | > 100 | 20.6 | 69.1 | > 100 |  |  | 40 | 46.6
Cn1c2ccccc2n2c3ccccc3c(=O)c(C#N)c12 |  |  |  |  |  | > 95.6 | > 100 |  | 
Cn1nc2ccc3nccc(N(CCO)CCO)c3c2n1 | > 100 | > 100 | > 100 |  | > 100 |  |  | > 100 | > 100
C#C[C@]1(O)CC[C@H]2[C@@H]3CCC4=C/C(=N\OCCN(CC)CC)CC[C@]4(C)[C@H]3CC[C@@]21C |  |  |  |  |  | 40.9 | 6.24 |  | 
S=C1N=C(Cl)/C(=C\c2ccco2)N1 |  |  |  |  |  | > 100 |  |  | 
COc1ccc(NC(=O)CC(=O)N/N=C/c2ccc(N(CCC#N)S(=O)(=O)c3ccccc3)cc2)cc1 | > 100 | > 100 |  | > 100 | > 100 |  |  | > 100 | > 100
Cc1sc(N)c(S(=O)(=O)c2ccccc2)c1C |  |  |  |  |  | > 100 |  |  | 
COc1ccc(CCNC(=O)CCc2ccccc2CO)cc1OC |  |  |  |  |  | > 100 |  |  | 
CCOP(=O)(OCC)[C@]12C[C@@H](C)C=C[C@H]1COC2=O |  |  |  |  |  | > 100 | > 100 |  | 
O=C(O)c1cc(O)c2c(c1)C([C@@H]1c3cccc(O)c3C(=O)c3c(O)cc(C(=O)O)cc31)c1cccc(O)c1C2=O (stereo partly specified) |  |  |  |  |  | > 100 | 41.5 |  | 
CCOC(=O)/C(C[C@H]1OC(C)(C)O[C@@H]1[C@H]1COC(C)(C)O1)=N/O |  |  |  |  |  |  | > 100 |  | 
CC(=O)Oc1cc(C)c(OC(C)=O)c2c1[C@H]1CC[C@]3(C)[C@@H](OC(C)=O)CC[C@H]3[C@@H]1CC2 |  |  |  |  |  |  | 28.2 |  | 
CC(=O)OC1CC[C@@]2(C)C(C1)CC(OC(C)=O)[C@@H]1C2CC(OC(C)=O)[C@]2(C)C(C(C)CC=C(c3ccc(Cl)cc3)c3ccc(Cl)cc3)CCC12 (stereo partly specified) |  |  |  |  |  | > 100 | > 100 |  | 
CCCC(=O)Oc1ccc2c(C)cc(=O)oc2c1OC(=O)CCC |  |  |  |  |  |  | > 100 |  | 

SMILES | TGI (SNB-78 CNS) [µM] | TGI (HOP-18 NSCLC) [µM] | TGI (DMS 273 small cell lung) [µM] | TGI (RXF-631 renal) [µM] | TGI (DLD-1 colon) [µM] | TGI (T-47D breast) [µM] | TGI (MDA-N) [µM] | TGI (XF 498 CNS) [µM] | TGI (M19-MEL melanoma) [µM]
Cc1nc2c(n1CCN(C)C)C(=O)c1ccccc1C2=O | 78.9 |  | 28.8 |  | 26.9 |  |  | 33.1 | 4.3
COC(=O)CCc1cccnc1/C=N/O | > 100 | > 100 | > 100 | > 100 | > 100 |  |  |  | > 100
NC(=S)N/N=c1\cc(C(=O)Nc2ccc([N+](=O)[O-])cc2[N+](=O)[O-])oc2ccccc12 |  |  |  |  |  |  | > 100 |  | 
CC(C)(Oc1ccc2c(=O)cc(-c3ccccc3)oc2c1)C(=O)Nc1c(Cl)cccc1Cl | > 100 | > 100 | > 100 |  |  |  |  | 72.2 | > 100
COC(=O)C1N=CSCC1(C)O (stereo unspecified) | > 100 | > 100 |  |  | > 100 |  |  | > 100 | > 100
CCc1cccc(CC)c1NC(=O)C1=C(C)NC(C)=C(C(=O)Nc2c(CC)cccc2CC)C1c1ccc2c(c1)OCO2 | 52.3 | 61.2 | 26 |  | 50.3 |  |  |  | 30.9
Cc1n[nH]c(=O)n1/N=C/c1ccncc1 |  |  |  |  |  | > 100 | > 100 |  | 
CCCCCCCCCCCC(=O)c1c(O)cccc1O | 43.9 | 31 | 34 | 35.5 | 33.8 |  |  | 32.4 | 34.5
Cc1nc(Nc2ccccc2)sc1C(=O)NNc1ccc([N+](=O)[O-])cc1[N+](=O)[O-] | > 100 | > 100 | > 100 |  | > 100 |  |  | 55.3 | > 100
CNC(=O)CNC(=O)C(Cc1ccc(NC(=O)CCCCC(C)=O)cc1)NC(=O)C(CCC(=O)OCc1ccccc1)NC(=O)OC(C)(C)C (stereo unspecified) |  |  |  |  |  | > 100 | > 100 |  | 
Cn1c(=O)cc(NCCc2ccccc2)[nH]c1=O |  |  |  |  |  | > 100 | 20.5 |  | 
CC(C)c1cccc(C(=O)NCCN(C)C)c1[N+](=O)[O-] |  |  |  |  |  | > 100 | > 100 |  | 
CC(C(=O)c1ccc(Cl)cc1)C1OC(=O)C(Cl)=C1Cl (stereo unspecified) |  | > 100 |  | > 100 | 49.9 |  |  | 84.1 | 52.3
CCCCCCCCCCCC(O)=C1C(=O)CC(O)CC1=O (stereo unspecified) | > 100 | > 100 | > 100 | > 100 |  |  |  | > 100 | > 100
CCNc1nc2c(ncn2C2CC(O)C(COP(=O)(O)O)O2)c(=O)[nH]1 (stereo unspecified) |  |  |  |  |  | > 100 | > 100 |  | 
O=[N+]([O-])C(=C(Nc1ccccc1)Nc1ccccc1)/C(Cl)=C(\Cl)Br |  |  |  |  |  | 44.8 |  |  | 
CC(=O)C(=[N+]=[N-])C(=O)OCCOC(=O)C(=[N+]=[N-])C(C)=O |  |  |  |  |  | > 1 | > 1 |  | 
O=S(=O)(O)c1cc(N=Nc2cc(S(=O)(=O)O)c3cccnc3c2O)ccc1/C=C/c1ccc(N=Nc2cc(S(=O)(=O)O)c3cccnc3c2O)cc1S(=O)(=O)O | > 100 | > 100 | > 100 | > 100 | > 100 | > 100 | > 100 | > 100 | > 100
